Results reported in ChEMBL document CHEMBL1148294, “Synthesis, in vitro evaluation, and antileishmanial activity of water-soluble prodrugs of buparvaquone” (J Med Chem, 2004).
≈ marks a conversion by molar mass, not a printed value.

Columns and labels:
Leishmania major [1] = assay: Effective dose was determined for extracellular promastigotes of Leishmania major JISH118 at 72 h; format: functional; details: read-out: ED50 (the source's name)
Leishmania mexicana [2] = assay: Effective dose was determined for intracellular amastigotes of Leishmania mexicana LV4 at 72 hr in infected macrophages at 34 degree C (experiment 2); details: read-out: ED50 (the source's name)
[3] = Aqueous Solubility at pH 7.4; format: physicochemical
[4] = Ionization constant (pKa) was determined; format: physicochemical
Leishmania major [5] = assay: Effective dose was determined for intracellular amastigotes of Leishmania major JISH118 at 72 hr in infected macrophages at 34C (experiment 1); format: functional; details: read-out: ED50 (the source's name)
Leishmania donovani [6] = assay: Effective dose was determined for extracellular promastigotes of Leishmania donovani L82 at 72 h; format: functional; details: read-out: ED50 (the source's name)
[7] = Aqueous Solubility at pH 3; format: physicochemical
Leishmania mexicana [8] = assay: Effective dose was determined for extracellular promastigotes of Leishmania mexicana LV4 at 72 h; format: functional; details: read-out: ED50 (the source's name)
Leishmania mexicana [9] = assay: Effective dose was determined for intracellular amastigotes of Leishmania mexicana LV4 at 72 hr in infected macrophages at 34C (experiment 1); format: functional; details: read-out: ED50 (the source's name)
Leishmania aethiopica [10] = assay: Effective dose was determined for intracellular amastigotes of Leishmania aethiopica Khartoum at 72 hr in infected macrophages at 34C (experiment 1); format: functional; details: read-out: ED50 (the source's name)
Leishmania donovani [11] = assay: Effective dose was determined for intracellular amastigotes of Leishmania donovani L82 at 72 hr in infected macrophages at 37 degree C (experiment 2); format: functional; details: read-out: ED50 (the source's name)
Leishmania panamensis [12] = assay: Effective dose was determined for extracellular promastigotes of Leishmania panamensis BOYNTON at 72 h; format: functional; details: read-out: ED50 (the source's name)
Leishmania amazonensis [13] = assay: Effective dose was determined for extracellular promastigotes of Leishmania amazonensis LV81 at 72 h; format: functional; details: read-out: ED50 (the source's name)
Leishmania mexicana [14] = assay: Effective dose was determined for extracellular promastigotes of Leishmania mexicana BEL21 at 72 h; format: functional; details: read-out: ED50 (the source's name)
Leishmania aethiopica [15] = assay: Effective dose was determined for intracellular amastigotes of Leishmania aethiopica Khartoum at 72 hr in infected macrophages at 34 degree C (experiment 2); details: read-out: ED50 (the source's name)
Leishmania amazonensis [16] = assay: Effective dose was determined for intracellular amastigotes of Leishmania amazonensis LV81 at 72 hr in infected macrophages at 34C (experiment 1); format: functional; details: read-out: ED50 (the source's name)
Leishmania panamensis [17] = assay: Effective dose was determined for intracellular amastigotes of Leishmania panamensis BOYNTON at 72 hr in infected macrophages at 34C (experiment 1); format: functional; details: read-out: ED50 (the source's name)
Leishmania major [18] = assay: Effective dose was determined for intracellular amastigotes of Leishmania major JISH118 at 72 hr in infected macrophages at 34 degree C (experiment 2); details: read-out: ED50 (the source's name)
Leishmania aethiopica [19] = assay: Effective dose was determined for extracellular promastigotes of Leishmania aethiopica Khartoum at 72 h; format: functional; details: read-out: ED50 (the source's name)
Leishmania donovani [20] = assay: Effective dose was determined for intracellular amastigotes of Leishmania donovani L82 at 72 hr in infected macrophages at 37C (experiment 1); details: read-out: ED50 (the source's name)
[21] = Aqueous Solubility at pH 5; format: physicochemical
Leishmania panamensis [22] = assay: Effective dose was determined for intracellular amastigotes of Leishmania panamensis BOYNTON at 72 h in infected macrophages at 34 degree C (experiment 2); details: read-out: ED50 (the source's name)
[23] = Distribution Coefficient at pH 3; format: physicochemical; details: octanol/water
alkaline phosphatase = assay: Half-life for rate of hydrolysis was determined in alkaline phosphatase solution (pH 7.4); format: ADME
[24] = Distribution Coefficient at pH 5; format: physicochemical; details: octanol/water
[25] = Half-life for rate of hydrolysis was determined at pH 7.4; format: ADME; details: buffer
[26] = Distribution Coefficient at pH 7.4; format: physicochemical; details: octanol/water
[27] = Half-life for rate of hydrolysis was determined at pH 3; format: ADME; details: buffer
[28] = Half-life for rate of hydrolysis was determined at pH 5; format: ADME; details: buffer
[29] = Half-life for rate of hydrolysis was determined in human skin homogenate (pH 7.4); format: ADME, tissue-based, Zone of skin

## CC(C)(C)[C@H]1CC[C@H](CC2=C(O)C(=O)c3ccccc3C2=O)CC1 [BUPARVAQUONE]
Leishmania major [1]
  EC50: 1 nM
Leishmania mexicana [2]
  EC50: 1250 nM
[3]
  solubility: 0.03 µg/mL (≈ 9.19e-05 mM)
[4]
  pKa: 5.7
Leishmania major [5]
  EC50: 434 nM
Leishmania donovani [6]
  EC50: 6 nM
[7]
  solubility: < 0.03 µg/mL
Leishmania mexicana [8]
  EC50: 4 nM
Leishmania mexicana [9]
  EC50: 1440 nM
Leishmania aethiopica [10]
  EC50: 633 nM
Leishmania donovani [11]
  EC50: 430 nM
Leishmania panamensis [12]
  EC50: 42 nM
Leishmania amazonensis [13]
  EC50: 4 nM
Leishmania mexicana [14]
  EC50: 2 nM
Leishmania aethiopica [15]
  EC50: 3640 nM
Leishmania amazonensis [16]
  EC50: 5500 nM
Leishmania panamensis [17]
  EC50: 370 nM
Leishmania major [18]
  EC50: 1800 nM
Leishmania aethiopica [19]
  EC50: 13 nM
Leishmania donovani [20]
  EC50: 480 nM
[21]
  solubility: < 0.03 µg/mL
Leishmania panamensis [22]
  EC50: 923 nM
[23]
  logD: 7.02

## CC(C)(C)C1CCC(CC2=C(OCOP(=O)(O)O)C(=O)c3ccccc3C2=O)CC1 (stereo not drawn)
Leishmania major [1]
  EC50: 12 nM
Leishmania mexicana [2]
  EC50: 2510 nM
[3]
  solubility: > 3500 µg/mL
[4]
  pKa: 2.28
Leishmania major [5]
  EC50: 810 nM
Alkaline phosphatase
  half-life: 3.8 min
[24]
  logD: 1.83
[25]
  half-life: 0.5 h
[26]
  logD: 1.16
Leishmania donovani [6]
  EC50: 3 nM
[7]
  solubility: > 3500 µg/mL
Leishmania mexicana [8]
  EC50: 10 nM
Leishmania mexicana [9]
  EC50: 2580 nM
Leishmania aethiopica [10]
  EC50: 1660 nM
Leishmania donovani [11]
  EC50: 1220 nM
Leishmania panamensis [12]
  EC50: 120 nM
Leishmania amazonensis [13]
  EC50: 7 nM
[27]
  half-life: 97 h
Leishmania mexicana [14]
  EC50: 5 nM
Leishmania aethiopica [15]
  EC50: 3990 nM
Leishmania amazonensis [16]
  EC50: 8810 nM
Leishmania panamensis [17]
  EC50: < 1120 nM
Leishmania major [18]
  EC50: 1890 nM
Leishmania aethiopica [19]
  EC50: 57 nM
Leishmania donovani [20]
  EC50: 1250 nM
[28]
  half-life: 8 h
[29]
  half-life: 0.175 h
[21]
  solubility: > 3500 µg/mL
Leishmania panamensis [22]
  EC50: 1190 nM
[23]
  logD: 2.96

## CC(C)(C)C1CCC(CC2=C(OP(=O)(O)O)C(=O)c3ccccc3C2=O)CC1 (stereo not drawn)
Leishmania major [1]
  EC50: 64 nM
Leishmania mexicana [2]
  EC50: 4030 nM
[3]
  solubility: > 3500 µg/mL
[4]
  pKa: 2.68
Leishmania major [5]
  EC50: 1370 nM
Alkaline phosphatase
  half-life: 1.2 min
[24]
  logD: 1.27
[25]
  half-life: 17 h
[26]; read-out: logD
  logD: 0.47
Leishmania donovani [6]
  EC50: 9 nM
[7]
  solubility: > 3500 µg/mL
Leishmania mexicana [8]
  EC50: 39 nM
Leishmania mexicana [9]
  EC50: 7030 nM
Leishmania aethiopica [10]
  EC50: 2330 nM
Leishmania donovani [11]
  EC50: 4310 nM
Leishmania panamensis [12]
  EC50: 124 nM
Leishmania amazonensis [13]
  EC50: 24 nM
[27]
  half-life: 72 h
Leishmania mexicana [14]
  EC50: 24 nM
Leishmania aethiopica [15]
  EC50: 7350 nM
Leishmania amazonensis [16]
  EC50: 15700 nM
Leishmania panamensis [17]
  EC50: 555 nM
Leishmania major [18]
  EC50: 6270 nM
Leishmania aethiopica [19]
  EC50: 122 nM
Leishmania donovani [20]
  EC50: 4120 nM
[28]
  half-life: 50 h
[29]
  half-life: 8.7 h
[21]
  solubility: > 3500 µg/mL
Leishmania panamensis [22]
  EC50: 2060 nM
[23]
  logD: 1.87
